The values below come from patent US8962608B2, “Cycloalkylnitrile pyrazole carboxamides as janus kinase inhibitors” (Merck Sharp & Dohme Corp., priority 2011, dated 2015).

Structures are written as SMILES.

In general, IC50 refers to the concentration needed to halve the response being measured.

The assay concerns the target JAK1 (recombinant purified GST-tagged catalytic domain) (Homo sapiens (Human), UniProt P23458). Put plainly: biochemical.
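Also: biochemical assay with HTRF read-out.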

JAK1 (recombinant purified GST-tagged catalytic domain), sequence (P23458 875-1153): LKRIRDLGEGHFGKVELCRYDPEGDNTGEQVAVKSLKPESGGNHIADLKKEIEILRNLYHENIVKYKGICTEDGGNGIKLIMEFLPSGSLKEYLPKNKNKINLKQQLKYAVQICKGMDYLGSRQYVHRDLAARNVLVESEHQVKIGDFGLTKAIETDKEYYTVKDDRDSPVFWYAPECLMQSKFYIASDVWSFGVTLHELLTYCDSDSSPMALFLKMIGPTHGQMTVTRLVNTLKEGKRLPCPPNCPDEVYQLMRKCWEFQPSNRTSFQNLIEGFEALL

In the case of `N#C[C@H]1C[C@@H](C(=O)N[C@H](C2CC2)C(F)(F)F)CC[C@@H]1n1cc(C(N)=O)c(Nc2ccc(Cl)cc2)n1` (single isomer, unassigned) [Example 35-14, 3-[(4-chlorophenyl)amino]-1-[(1S,2S,4S or 1R,2R,4R)-2-cyano-4-{[(1R)-1-cyclopropyl-2,2,2-trifluoroethyl]carbamoyl}cyclohexyl]-1H-pyrazole-4-carboxamide], the IC50 amounted to 9 nM. In the case of `N#C[C@H]1CCCC[C@@H]1n1cc(C(N)=O)c(Nc2ccnc(Cl)c2)n1` (racemic) [Example 17-7, 3-[(2-chloropyridin-4-yl)amino]-1-[(1S,2S and 1R,2R)-2-cyanocyclohexyl]-1H-pyrazole-4-carboxamide] it was 4 nM; in that of `CN(CCC(F)(F)F)[C@H]1CC[C@H](n2cc(C(N)=O)c(Nc3ccc(S(=O)(=O)C(F)(F)F)cc3)n2)[C@@H](C#N)C1` (single isomer, unassigned) [Example 28-171, 1-{(1S,2S,4S or 1R,2R,4R)-2-cyano-4-[methyl(3,3,3-tri-fluoropropyl)amino]cyclohexyl}-3-({4-[(trifluoromethyl)sulfonyl]phen-yl}amino)-1H-pyrazole-4-carboxamide], 2 nM; in that of `N#C[C@@H]1C[C@H](C(=O)N2CC(F)(F)C2)CC[C@H]1n1cc(C(N)=O)c(Nc2ccc(Cl)cc2)n1` (single isomer, unassigned) [Example 35-15, 3-[(4-chlorophenyl)amino]-1-{(1R,2R,4R or 1S,2S,4S)-2-cyano-4-[(3,3-difluoroazetidin-1-yl)carbonyl]cyclohexyl}-1H-pyrazole-4-carboxamide], 3 nM. `N#C[C@H]1CCCC[C@@H]1n1cc(C(N)=O)c(Nc2ccc(F)nc2)n1` (single isomer, unassigned) [Example 17-19, 1-[(1S,2S or 1R,2R)-2-cyanocyclohexyl]-3-[(6-fluoropyridin-3-yl)amino]-1H-pyrazole-4-carboxamide]: the IC50 stood at 3 nM. For the compound `C[C@]1(O)CC[C@H](n2cc(C(N)=O)c(Nc3ccc(Cl)c(F)c3)n2)[C@@H](C#N)C1` (single isomer, unassigned) [Example 32-17, 3-[(4-chloro-3-fluorophenyl)amino]-1-[(1S,2S,4S or 1R,2R,4R)-2-cyano-4-hydroxy-4-methylcyclohexyl]-1H-pyrazole-4-carboxamide], the concentration for half-maximal inhibition (IC50) was determined as 2 nM. `N#C[C@H]1C[C@@H](C(=O)N2CC(F)C2)CC[C@@H]1n1cc(C(N)=O)c(Nc2ccc(Cl)cc2)n1` (single isomer, unassigned) [Example 35-34, 3-[(4-chlorophenyl)amino]-1-{(1S,2S,4S or 1R,2R,4R)-2-cyano-4-[(3-fluoroazetidin-1-yl)carbonyl]cyclohexyl}-1H-pyrazole-4-carboxamide]: the IC50 worked out at 3 nM.

`CC(C)(C(=O)O)c1ccc(Nc2nn([C@H]3CCC(N4CCC4)C[C@@H]3C#N)cc2C(N)=O)cc1` (single isomer, unassigned) [Example 28-72, 2-[4-({1-[(1S,2S or 1R,2R)-4-azetidin-1-yl-2-cyanocyclohexyl]-4-carbamoyl-1H-pyrazol-3-yl}amino)phenyl]-2-methylpropanoic acid]: the IC50 came out at 0.45 nM.

Take `CC(C)(CF)c1ccc(Nc2nn([C@H]3CC[C@H](O)C[C@@H]3C#N)cc2C(N)=O)cc1` (single isomer, unassigned) [Example 33-21, 1-[(1S,2S,4S or 1R,2R,4R)-2-cyano-4-hydroxycyclohexyl]-3-{[4-(2-fluoro-1,1-dimethylethyl)phenyl]amino}-1H-pyrazole-4-carboxamide]: the IC50 was 1 nM. In the case of `COCC(C)(C)N[C@H]1CCC(n2cc(C(N)=O)c(Nc3ccccc3)n2)[C@@H](C#N)C1` (single isomer, unassigned) [Example 28-231, 1-{(1S,2S,4S or 1R,2R,4R)-2-cyano-4-[(2-methoxy-1,1-dimethylethyl)amino]cyclo-hexyl}-3-(phenylamino)-1H-pyrazole-4-carboxamide] it was 16 nM; in that of `N#C[C@H]1C[C@H](N2CC3(CCC3)C2)CC[C@@H]1n1cc(C(N)=O)c(Nc2ccc(C(F)(F)F)cc2)n1` (single isomer, unassigned) [Example 28-24, 1-[(1S,2S,4R or 1R,2R,4S)-4-(2-azaspiro[3.3]hept-2-yl)-2-cyanocyclohexyl]-3-{[4-(trifluoromethyl)phenyl]amino}-1H-pyrazole-4-carboxamide], 0.6 nM.

For `N#C[C@@H]1C[C@H](C(=O)N[C@H](C2CC2)C(F)(F)F)CC[C@H]1n1cc(C(N)=O)c(Nc2ccc(Cl)cc2)n1` (single isomer, unassigned) [Example 35-25, 3-[(4-chlorophenyl)amino]-1-[(1R,2R,4R or 1S,2S,4S)-2-cyano-4-{[(1R)-1-cyclopropyl-2,2,2-trifluoroethyl]carbamoyl}cyclohexyl]-1H-pyrazole-4-carboxamide], the IC50 amounted to 21 nM. Regarding `CC1(CNC(=O)[C@@H]2CC[C@@H](n3cc(C(N)=O)c(Nc4ccc(Cl)cc4)n3)[C@H](C#N)C2)COC1` (single isomer, unassigned) [Example 35-29, 3-[(4-chlorophenyl)amino]-1-[(1R,2R,4R or 1S,2S,4S)-2-cyano-4-{[(3-methyloxetan-3-yl)methyl]carbamoyl}cyclohexyl]-1H-pyrazole-4-carboxamide], the IC50 amounted to 38 nM. For the compound `CN[C@H]1CCC(n2cc(C(N)=O)c(Nc3ccc(S(=O)(=O)C(F)(F)F)cc3)n2)[C@@H](C#N)C1` (mixture of isomers) [Example 27-9, 1-[(1S,2S,4S and 1R,2R,4R)-2-cyano-4-(methylamino)cyclohexyl]-3-({4-[(trifluoromethyl)sulfonyl]phenyl}amino)-1H-pyrazole-4-carboxamide], the IC50 was 3 nM. In the case of `CC(C)N[C@H]1CC[C@H](n2cc(C(N)=O)c(Nc3ccc(S(=O)(=O)C(F)(F)F)cc3)n2)[C@@H](C#N)C1` (single isomer, unassigned) [Example 28-174, 1-{(1S,2S,4S or 1R,2R,4R)-2-cyano-4-[(1-methylethyl)amino]cyclohexy}-3-({4-[(trifluoro-methyl)sulfonyl]phenyl}amino)-1H-pyrazole-4-carboxamide], the IC50 is 0.15 nM. The value for `N#C[C@H]1C[C@@H](N2CC(F)C2)CC[C@@H]1n1cc(C(N)=O)c(Nc2ccc(C(F)(F)F)cc2)n1` (single isomer, unassigned) [Example 28-105, 1-[(1S,2S,4S or 1R,2R,4R)-2-cyano-4-(3-fluoroazetidin-1-yl)cyclohexyl]-3-{[4-(trifluoromethyl)phenyl]amino}-1H-pyrazole-4-carboxamide] was 3 nM; that for `CN(C)[C@H]1CC[C@H](n2cc(C(N)=O)c(Nc3ccc(Cl)cc3)n2)[C@@H](C#N)C1` (single isomer, unassigned) [Example 28-117, 3-[(4-chlorophenyl)amino]-1-[(1S,2S,4S or 1R,2R,4R)-2-cyano-4-(dimethylamino)cyclohexyl]-1H-pyrazole-4-carboxamide] was 0.55 nM; that for `CN(C)[C@H]1CC[C@H](n2cc(C(N)=O)c(Nc3ccc(F)cc3)n2)[C@@H](C#N)C1` (single isomer, unassigned) [Example 28-129, 1-[(1S,2S,4S or 1R,2R,4R)-2-cyano-4-(dimethylamino)cyclohexyl]-3-[(4-fluorophenyl)amino]-1H-pyrazole-4-carboxamide] was 20 nM. With `N#C[C@@H]1C[C@H](C(=O)N2CCC(F)(F)C2)CC[C@H]1n1cc(C(N)=O)c(Nc2ccc(Cl)cc2)n1` (single isomer, unassigned) [Example 35-32, 3-[(4-chlorophenyl)amino]-1-{(1R,2R,4R or 1S,2S,4S)-2-cyano-4-[(3,3-difluoropyrrolidin-1-yl)carbonyl]cyclohexyl}-1H-pyrazole-4-carboxamide], the IC50 was 5 nM. Regarding `CC(C)(C(=O)NCC(F)(F)F)c1ccc(Nc2nn([C@H]3CCCC[C@@H]3C#N)cc2C(N)=O)cc1` (single isomer, unassigned) [Example 17-57, 1-[(1S,2S or 1R,2R)-2-cyanocyclohexyl]-3-[(4-{1,1-dimethyl-2-oxo-2-[(2,2,2-trifluoroethyl)amino]ethyl}phenyl)amino]-1H-pyrazole-4-carboxamide], the IC50 is 0.2 nM.

Turning to `N#C[C@H]1CCCC[C@@H]1n1cc(C(N)=O)c(Nc2ccc([C@@H](O)C(F)(F)F)nc2)n1` (single isomer, unassigned) [Example 17-46, 1-[(1S,2S or 1R,2R)-2-cyanocyclohexyl]-3-({6-[(1R or 1S)-2,2,2-trifluoro-1-hydroxyethyl]pyridin-3-yl}amino)-1H-pyrazole-4-carboxamide], the IC50 stood at 0.35 nM.

For the compound `CN(C)[C@H]1CCC(n2cc(C(N)=O)c(Nc3ccc(S(=O)(=O)C(F)(F)F)cc3)n2)[C@@H](C#N)C1` (mixture of isomers) [Example 27-8, 1-[(1S,2S,4S and 1R,2R,4R)-2-cyano-4-(dimethylamino)cyclohexyl]-3-({4-[(trifluoromethyl)sulfonyl]phenyl}amino)-1H-pyrazole-4-carboxamide], the IC50 is 0.3 nM. The value for `N#C[C@H]1C[C@H](O)CC[C@@H]1n1cc(C(N)=O)c(Nc2ccc(Cl)c(F)c2)n1` (single isomer, unassigned) [Example 25-3, 3-[(4-chloro-3-fluorophenyl)amino]-1-[(1S,2S,4R or 1R,2R,4S)-2-cyano-4-hydroxycyclohexyl]-1H-pyrazole-4-carboxamide] was 1 nM. The value for `C[C@@H]1C[C@@H](C)N1[C@H]1CC[C@H](n2cc(C(N)=O)c(Nc3ccc(C(F)(F)F)cc3)n2)[C@@H](C#N)C1` (single isomer, unassigned) [Example 28-9, 1-{(1S,2S,4S or 1R,2R,4R)-2-cyano-4-[(2R,4R or 2S,4S)-2,4-dimethylazetidin-1-yl]cyclohexyl}-3-{[4-(trifluoromethyl)phenyl]amino}-1H-pyrazole-4-carboxamide] was 2 nM; that for `N#C[C@H]1C[C@](O)(C2CC2)CC[C@@H]1n1cc(C(N)=O)c(Nc2ccc(Cl)cc2)n1` (single isomer, unassigned) [Example 32-12, 3-[(4-chlorophenyl)aminol-1-[(1S,2S,4S or 1R,2R,4R)-2-cyano-4-cyclopropyl-4-hydroxycyclohexyl]-1H-pyrazole-4-carboxamide] was 1 nM.
